Active and inactive are the calls of the source. The calls are words filed in the database; no cut-off is given here.
Assays:
Enterococcus faecalis [1] = test: (§1) Inhibition of Enterococcus faecalis recombinant type 1 methionine aminopeptidase expressed in Escherichia coli BL21 (DE3) using Met-pNA substrate
Enterococcus faecalis [2] = test: Inhibition of Enterococcus faecalis recombinant type 1 methionine aminopeptidase expressed in Escherichia coli BL21 (DE3) using Met-pNA substrate by spectral study in presence of CoCl2
Enterococcus faecalis [3] = test: Maximal inhibition of Enterococcus faecalis recombinant type 1 methionine aminopeptidase expressed in Escherichia coli BL21 (DE3) using Met-pNA substrate at 10 uM in presence of CoCl2
[4] = as §1
Enterococcus faecalis [5] = test: Inhibition of Enterococcus faecalis recombinant type 1 methionine aminopeptidase expressed in Escherichia coli BL21 (DE3) using Met-pNA substrate by spectral study in presence of Mn2+

| inhibition (Enterococcus faecalis [1]) | inhibition (Enterococcus faecalis [2]) | inhibition (Enterococcus faecalis [3]) [%] | IC50 [4] [µM] | inhibition (Enterococcus faecalis [5]) | SMILES |
| --- | --- | --- | --- | --- | --- |
| inactive |  |  |  |  | O=C([O-])CC(O)(CC(=O)[O-])C(=O)[O-].[Na+].[Na+].[Na+] |
|  | Active | 75 | 6.67 | Active | c1ccc(-c2ccccn2)nc1 [DIPYRIDYL] |
| inactive |  |  |  |  | c1cc(-c2ccncc2)ccn1 |

— ChEMBL document CHEMBL3217429, “Structural studies of Enterococcus faecalis methionine aminopeptidase and design of microbe specific 2,2-bipyridine based inhibitors” (Medchemcomm, 2012)
